Measured values from US8394786B2, “Quinazoline derivatives” (Janssen Pharmaceutica N.V., priority 2003, dated 2013).

Experiments:
SKOV3 cells = assay: Serum starved proliferation assay on the ovarian carcinoma SKOV3 cells (C3); type: cell-based; conditions: Homo sapiens, SK-OV-3, 72 h, EGF stimulated (100 ng/ml, 72 hours, serum free) or 72 hours with compounds; MTT cell viability assay; read-out: SKOV3 cell (C3): pIC50 (converted)
Procedure, shortened: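 SKOV3 cells grown 24 h in 10% FCS, then treated with compound under serum-free conditions (37 °C, 5% CO2) and stimulated 72 h with EGF at 100 ng/ml final; read-out by MTT viability. Alternative format: compound for 72 h after the same 24 h FCS step, also by MTT.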

EGFR = EGFR (Homo sapiens, UniProt P00533); assay: In vitro inhibition of EGFR, Flash Plate or glass-fiber filter technology (C2); type: biochemical; set-up: 0.5 μg EGFR-kinase domain/well; conditions: EGFR-kinase domain, 5.0 μM unlabeled ATP, read-out: Kinase activity.(C2): pIC50 (converted)
Procedure, shortened: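 EGFR kinase domain (0.5 μg/well) phosphorylated poly(GT) with 5.0 μM ATP plus AT^33P, dose response 1·10^−6 to 1·10^−10 M. Flash Plate: biotin-poly(GT), Tris pH 8.0, 30° C, 60 min, scintillation counting. Filter: Tris pH 7.5 with MnCl2, 25° C, 10 min, 33P counted on glass-fiber filter by phosphorimaging.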

EGFR, sequence (P00533 712-979 limits assumed): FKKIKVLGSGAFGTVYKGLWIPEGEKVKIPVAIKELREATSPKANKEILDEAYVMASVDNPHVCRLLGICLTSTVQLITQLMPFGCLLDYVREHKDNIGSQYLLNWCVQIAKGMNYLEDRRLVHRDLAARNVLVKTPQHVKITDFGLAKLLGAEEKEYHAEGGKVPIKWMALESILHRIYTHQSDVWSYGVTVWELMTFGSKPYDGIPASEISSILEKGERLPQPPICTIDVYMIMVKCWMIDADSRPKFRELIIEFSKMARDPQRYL

SMILES | IC50 (SKOV3 cells) | IC50 (EGFR)
COc1cc2ncnc3c2cc1OCC(=O)N1CC(O)CC1C(=O)NCc1ccc(Cl)cc1N3 (stereo not drawn) [Compound 133, 9,11-ethanediylidenepyrimido[4,5-b]pyrrolo[1,2-i][6,1,9,12]benzoxatriazacyclopentadecine-14,19(5H,13H)-dione, 3-chloro-16,17,18,18a,20,21-hexahydro-17-hydroxy-22-methoxy-] | 7.94 µM | 1.58 µM
COc1cc2ncnc3c2cc1OCCCCC(=O)N1CCCC1C(=O)NCc1ccc(Cl)cc1N3 (stereo not drawn) [Compound 134, 4,6-ethanediylidene-8H-pyrimido[4,5-b]pyrrolo[1,2-l][6,1,12,15]benzoxatriazacyclooctadecine-12,17(18H)-dione, 22-chloro-9,10,11,14,15,16,16a,19,24-nonahydro-25-methoxy-] | 0.794 µM | 0.398 µM
COc1cc2ncnc3c2cc1OCC(=O)NC(C)(C)C(=O)NCCc1ccc(Cl)cc1N3 [Compound 135, 4,6-ethanediylidene-8H-pyrimido[4,5-b][6,1,9,12]benzoxatriazacyclohexadecine-9,12-dione, 18-chloro-10,11,13,14,15,20-hexahydro-21-methoxy-11,11-dimethyl-] | 1 µM | 3.98 µM
COc1cc2ncnc3c2cc1OCCCCC(=O)NC(CC(C)C)C(=O)NCc1ccc(Cl)cc1N3 (stereo not drawn) [Compound 136, 4,6-ethanediylidene-8H-pyrimido[4,5-b][6,1,12,15]benzoxatriazacyclooctadecine-12,15(16H)-dione, 20-chloro-9,10,11,13,14,17,22-heptahydro-23-methoxy-14-(2-methylpropyl)-] | 0.251 µM | 0.631 µM
COc1cc2ncnc3c2cc1OCCCCC(=O)NC(C)(C)C(=O)NCc1ccc(Cl)cc1N3 [Compound 137, 4,6-ethanediylidene-8H-pyrimido[4,5-b][6,1,12,15]benzoxatriazacyclooctadecine-12,15(16H)-dione, 20-chloro-9,10,11,13,14,17,22-heptahydro-23-methoxy-14,14-dimethyl-] | 0.251 µM | 0.251 µM
COc1cc2ncnc3c2cc1OCCCCC(=O)NC(Cc1ccccc1)C(=O)NCc1ccc(Cl)cc1N3 (stereo not drawn) [Compound 138, 4,6-ethanediylidene-8H-pyrimido[4,5-b][6,1,12,15]benzoxatriazacyclooctadecine-12,15(16H)-dione, 20-chloro-9,10,11,13,14,17,22-heptahydro-23-methoxy-14-(phenylmethyl)-] | 0.631 µM | 2 µM
COc1cc2ncnc3c2cc1OCC(=O)N1CCCC1C(=O)NCCc1ccc(Cl)cc1N3 (stereo not drawn) [Compound 140, 1,21-ethanediylidene-5H-pyrimido[4,5-b]pyrrolo[1,2-i][6,1,9,12]benzoxatriazacyclohexadecine-13,18(19H)-dione, 7-chloro-10,11,12,13a,14,15,16-heptahydro-23-methoxy-] | 0.2 µM | 0.2 µM
COc1cc2ncnc3c2cc1OCC(=O)NC(CC(C)C)C(=O)NCCc1ccc(Cl)cc1N3 (stereo not drawn) [Compound 141, 4,6-ethanediylidene-8H-pyrimido[4,5-b][6,1,9,12]benzoxatriazacyclohexadecine-9,12-dione, 18-chloro-10,11,13,14,15,20-hexahydro-21-methoxy-11-(2-methylpropyl)-] | 1.58 µM | 0.794 µM
COc1cc2ncnc3c2cc1OCC(=O)NC(C(C)O)C(=O)NCCc1ccc(Cl)cc1N3 (stereo not drawn) [Compound 142, 4,6-ethanediylidene-8H-pyrimido[4,5-b][6,1,9,12]benzoxatriazacyclohexadecine-9,12-dione, 18-chloro-10,11,13,14,15,20-hexahydro-11-(1-hydroxyethyl)-21-methoxy-] | 0.631 µM | 0.1 µM
COc1cc2ncnc3c2cc1OCCCC(=O)NC(CC(C)C)C(=O)NCc1ccc(Cl)cc1N3 (stereo not drawn) [Compound 143, 4,6-ethanediylidenepyrimido[4,5-b][6,1,11,14]benzoxatriazacycloheptadecine-11,14(8H,15H)-dione, 19-chloro-9,10,12,13,16,21-hexahydro-22-methoxy-13-(2-methylpropyl)-] | 0.2 µM | 0.501 µM

Second part, the molecule after the results:

IC50 (SKOV3 cells) | IC50 (EGFR) | SMILES
0.126 µM | 0.158 µM | COc1cc2ncnc3c2cc1OCCCC(=O)NC(C)(C)C(=O)NCc1ccc(Cl)cc1N3 [Compound 144, 4,6-ethanediylidenepyrimido[4,5-b][6,1,11,14]benzoxatriazacycloheptadecine-11,14(8H,15H)-dione, 19-chloro-9,10,12,13,16,21-hexahydro-22-methoxy-13,13-dimethyl-]
0.251 µM | 0.2 µM | COc1cc2ncnc3c2cc1OCCCC(=O)NC(Cc1ccccc1)C(=O)NCc1ccc(Cl)cc1N3 (stereo not drawn) [Compound 145, 4,6-ethanediylidenepyrimido[4,5-b][6,1,11,14]benzoxatriazacycloheptadecine-11,14(8H,15H)-dione, 19-chloro-9,10,12,13,16,21-hexahydro-22-methoxy-13-(phenylmethyl)-]
0.631 µM | 0.2 µM | COc1cc2ncnc3c2cc1OCCCC(=O)NC(C(C)O)C(=O)NCc1ccc(Cl)cc1N3 (stereo not drawn) [Compound 146, 4,6-ethanediylidenepyrimido[4,5-b][6,1,11,14]benzoxatriazacycloheptadecine-11,14(8H,15H)-dione, 19-chloro-9,10,12,13,16,21-hexahydro-13-(1-hydroxyethyl)-22-methoxy-]
0.251 µM | 0.126 µM | COc1cc2ncnc3c2cc1OCCCCC(=O)NC(C(C)O)C(=O)NCc1ccc(Cl)cc1N3 (stereo not drawn) [Compound 147, 4,6-ethanediylidene-8H-pyrimido[4,5-b][6,1,12,15]benzoxatriazacyclooctadecine-12,15(16H)-dione, 20-chloro-9,10,11,13,14,17,22-heptahydro-14-(1-hydroxyethyl)-23-methoxy-]
10 µM | 0.251 µM | COc1cc2ncnc3c2cc1OCC(=O)NC(CO)C(=O)NCCc1ccc(Cl)cc1N3 (stereo not drawn) [Compound 148, 4,6-ethanediylidene-8H-pyrimido[4,5-b][6,1,9,12]benzoxatriazacyclohexadecine-9,12-dione, 18-chloro-10,11,13,14,15,20-hexahydro-11-(hydroxymethyl)-21-methoxy-]
1.58 µM | 0.126 µM | COc1cc2ncnc3c2cc1OCC(=O)N1CC(O)CC1C(=O)NCCc1ccc(Cl)cc1N3 (stereo not drawn) [Compound 149, 1,21-ethanediylidene-5H-pyrimido[4,5-b]pyrrolo[1,2-i][6,1,9,12]benzoxatriazacyclohexadecine-13,18(19H)-dione, 7-chloro-10,11,12,13a,14,15,16-heptahydro-15-hydroxy-23-methoxy-]
10 µM | 3.16 µM | COc1cc2ncnc3c2cc1OCC(=O)NCC(=O)NCc1ccc(Cl)cc1N3 [Compound 151, 4,6-ethenopyrimido[4,5-b][6,1,9,12]benzoxatriazacyclopentadecine-9,12(8H,13H)-dione, 17-chloro-10,11,14,19-tetrahydro-20-methoxy-]
10 µM | 0.0316 µM | COc1cc2ncnc3c2cc1OCC(=O)NCCC(=O)NCc1ccc(Cl)cc1N3 [Compound 152, 4,6-etheno-8H-pyrimido[4,5-b][6,1,9,13]benzoxatriazacyclohexadecine-9,13(10H,14H)-dione, 18-chloro-11,12,15,20-tetrahydro-21-methoxy-]
